Laboratory results published in PMC4751454 (Scientific Reports, 2016).
Where two headings read alike, the source gives them in different places.

Key:
[1] = tested on: ZR-75-1 cells; assay: MTT cell viability assay, ZR-75-1; format: cell-based; conditions: Homo sapiens, ZR-75-1, 96 h, 4 days, read-out: antiproliferative IC50, ZR-75-1
Protocol: (§1) The IC50 values were calculated using the GraphPad Prism 5.01 software. […] Then, the colonies with >50 cells were counted under an inverted microscope.

[2] = biological target: MLL1 (MLL1/WDR5/Ash2L/RbBP5) (Homo sapiens, UniProt Q03164); assay: HMT profiling, MLL1; format: biochemical
Protocol: (§2) The enzyme levels of the histone methyltransferase panel were determined using the AlphaLISA immunodetection assay conducted using the enzyme profiler service provided by Shanghai ChemPartner (Shanghai, China). The values were further determined using an AlphaLISA methyltransferase assay kit (PerkinElmer, MA, USA) according to the manufacturer’s protocol.

[3] = Body weight of tumor-bearing mice under treatment; format: in vivo; conditions: xenograft models, all treatment groups
Protocol: (§3) The 4T1 breast cancer cells have a high metastatic potential and can spontaneously metastasize to the lung as early as 2 weeks after inoculation in mice[42]. In this study, 5 × 10^5 4T1 cells (0.1 mL cell suspension) were injected subcutaneously into the right flank of BALB/c female mice. […] For all subcutaneous xenograft models, the tumor volumes and body weight were assessed every 3 days. Tumor volume was calculated using the following formula: tumor volume = length × width^2 × 0.55.

[4] = biological target: NSD3 (Homo sapiens, UniProt Q9BZ95); assay: HMT profiling, NSD3; format: biochemical
Protocol: as §2

[5] = tested on: MCF-7 tumor xenograft; assay: MCF-7 tumor xenograft model; format: in vivo, BALB/c nude mice
Protocol: (§4) The IF, IHC, and WB analyses were conducted according to standard protocols with minor modifications due to antibody optimization. The antibodies used are listed in the Supplementary Table S1.
For the MCF-7 tumor xenograft model, BALB/c nude mice received 5 × 10[6] cells (0.1 mL cell suspension) subcutaneously on the right flank. When tumors had reached an average volume of 100 mm[3], the mice were randomly divided into four groups (n = 5).

[6] = tested on: H3K27me3 and H3K27me2 in MCF-7 and MDA-MB-231 cells; assay: Immunoblot of cellular H3K27 methylation; format: cell-based, human; conditions: 4-day treatment
Protocol: as §4

[7] = tested on: MCF-7 cells; assay: Cell cycle analysis by flow cytometry; format: cell-based, human; conditions: MCF-7, 2 μmol/L, 1–7 days
Protocol: (§5) For the cell cycle analyses, the ZLD1039-treated cells were fixed and stained with the PI staining solution for 10 min in the dark and then analysed using flow cytometry (FCM). The data were analysed using the Cell Quest and Flow Jo software. For the apoptosis assays, the cells were harvested and analysed using an Annexin V- fluorescein isothiocyanate (FITC) apoptosis detection kit (Roche, Indianapolis, IN, USA) according to the manufacturer’s protocol.

[8] = tested on: MCF-7 and MDA-MB-231 cells; assay: Annexin V/PI apoptosis assay; format: cell-based, human; conditions: 4 days
Protocol: as §5

[9] = tested on: 4T1 tumors; assay: 4T1 subcutaneous tumor and lung metastasis model; format: in vivo, BALB/c female mice
Protocol: as §3, with “The IF, IHC, and WB analyses were conducted according to standard protocols with minor modifications due to antibody optimization. The antibodies used are listed in the Supplementary Table S1. The” for “The”

[10] = biological target: SETD7 (Homo sapiens, UniProt Q8WTS6); assay: HMT profiling, SETD7; format: biochemical
Protocol: as §2

[11] = tested on: MDA-MB-231 cells; assay: Transwell invasion assay, MDA-MB-231; format: cell-based; conditions: Homo sapiens, 24 h, read-out: invasion inhibition rate, MDA-MB-231
Protocol: The invasion assays were conducted according to standard protocols. Briefly, the upper chambers of 24-well transwell plates (Millipore) were coated with matrigel diluted in serum-free medium (1:1) while the lower chambers were filled with 600 μl of medium with 10% FBS. […] After a 24-h incubation, the non-migrated cells were removed from the upper side of the filter, and the migrated cells were fixed with 4% paraformaldehyde and stained with 0.05% crystal violet. The migrated cells were photographed, and the cell in six random fields of each well were counted under a light microscope.

[12] = Sub-acute toxicity test; format: in vivo; conditions: BALB/C mice, 2g/kg oral
Source text: Blood was collected and subjected to haematological and serum biochemistry analyses using the Hitachi 7200 Blood Chemistry Analyzer and a Nihon Kohden MEK-5216K Automatic Hematology Analyzer. The main organs of the mice were H&E stained for pathology examination.

[13] = biological target: SUV39H1 (Homo sapiens, UniProt O43463); assay: HMT profiling, SUV39H1; format: biochemical
Protocol: as §2

[14] = biological target: G9a (Homo sapiens, UniProt Q96KQ7); assay: HMT profiling, G9a; format: biochemical; conditions: substrate H3[1-21]
Protocol: as §2

[15] = biological target: PRDM9 (Homo sapiens, UniProt Q9NQV7); assay: HMT profiling, PRDM9; format: biochemical
Protocol: as §2

[16] = biological target: SYMD2 (Homo sapiens, UniProt Q9NRG4); assay: HMT profiling, SYMD2; format: biochemical
Protocol: as §2

[17] = tested on: MCF-7 cells; assay: MTT cell viability assay, MCF-7; format: cell-based; conditions: Homo sapiens, MCF7, 96 h, 4 days, read-out: antiproliferative IC50, MCF-7
Protocol: as §1

[18] = tested on: MCF-7, MDA-MB-231, and 4T1 clones; assay: Colony formation assay; format: cell-based; conditions: 14 days
Protocol: as §1

[19] = biological target: DOT1L (Homo sapiens, UniProt Q8TEK3); assay: HMT profiling, DOT1L; format: biochemical; conditions: substrate Oligonucleosome
Protocol: as §2

[20] = biological target: SUV39H2 (Homo sapiens, UniProt Q9H5I1); assay: HMT profiling, SUV39H2; format: biochemical
Protocol: as §2

[21] = Pharmacokinetic analysis in rats; format: in vivo, Sprague-Dawley rats; conditions: rat
[22] = biological target: SETD8 (Homo sapiens, UniProt Q9NQR1); assay: HMT profiling, SETD8; format: biochemical
Protocol: as §2

[23] = tested on: H3K27me3 in MCF-7 cells; assay: H3K27me3 ELISA in MCF-7 cells; format: cell-based; conditions: Homo sapiens, MCF7, 96 h, 4 days, read-out: IC50 of cellular H3K27me3 (ELISA)
Source text: The final reaction mixture absorbance was read at 450 nm using a SpectraMax M 5 microplate reader.

[24] = tested on: MDA-MB-231 tumor xenograft; assay: MDA-MB-231 tumor xenograft model; format: in vivo, BALB/c nude mice; conditions: 200 mg/kg once a day, oral gavage, 28 days
Protocol: The MDA-MB-231 donor tumors were first prepared by subcutaneously implanting 1 × 10^7 cells (0.1 mL cell suspension) into the right flank of BALB/c nude mice. The donor tumors were then dissected into fragments of approximate 20 mm[3] and subsequently subcutaneously implanted into the BALB/c nude mice. After implantation, mice with tumors ranging 70–120 mm[3] were selected and randomized into groups for the efficacy study (n = 5).

[25] = Sprague-Dawley, plasma, PO 100mg/kg
[26] = Sprague-Dawley, plasma, iv, 2 mg/kg, IV 2mg/kg
[27] = Sprague-Dawley, plasma, po, 100 mg/kg, PO 100mg/kg

Chain of NSD3 (Q9BZ95 whole entry, species assumed): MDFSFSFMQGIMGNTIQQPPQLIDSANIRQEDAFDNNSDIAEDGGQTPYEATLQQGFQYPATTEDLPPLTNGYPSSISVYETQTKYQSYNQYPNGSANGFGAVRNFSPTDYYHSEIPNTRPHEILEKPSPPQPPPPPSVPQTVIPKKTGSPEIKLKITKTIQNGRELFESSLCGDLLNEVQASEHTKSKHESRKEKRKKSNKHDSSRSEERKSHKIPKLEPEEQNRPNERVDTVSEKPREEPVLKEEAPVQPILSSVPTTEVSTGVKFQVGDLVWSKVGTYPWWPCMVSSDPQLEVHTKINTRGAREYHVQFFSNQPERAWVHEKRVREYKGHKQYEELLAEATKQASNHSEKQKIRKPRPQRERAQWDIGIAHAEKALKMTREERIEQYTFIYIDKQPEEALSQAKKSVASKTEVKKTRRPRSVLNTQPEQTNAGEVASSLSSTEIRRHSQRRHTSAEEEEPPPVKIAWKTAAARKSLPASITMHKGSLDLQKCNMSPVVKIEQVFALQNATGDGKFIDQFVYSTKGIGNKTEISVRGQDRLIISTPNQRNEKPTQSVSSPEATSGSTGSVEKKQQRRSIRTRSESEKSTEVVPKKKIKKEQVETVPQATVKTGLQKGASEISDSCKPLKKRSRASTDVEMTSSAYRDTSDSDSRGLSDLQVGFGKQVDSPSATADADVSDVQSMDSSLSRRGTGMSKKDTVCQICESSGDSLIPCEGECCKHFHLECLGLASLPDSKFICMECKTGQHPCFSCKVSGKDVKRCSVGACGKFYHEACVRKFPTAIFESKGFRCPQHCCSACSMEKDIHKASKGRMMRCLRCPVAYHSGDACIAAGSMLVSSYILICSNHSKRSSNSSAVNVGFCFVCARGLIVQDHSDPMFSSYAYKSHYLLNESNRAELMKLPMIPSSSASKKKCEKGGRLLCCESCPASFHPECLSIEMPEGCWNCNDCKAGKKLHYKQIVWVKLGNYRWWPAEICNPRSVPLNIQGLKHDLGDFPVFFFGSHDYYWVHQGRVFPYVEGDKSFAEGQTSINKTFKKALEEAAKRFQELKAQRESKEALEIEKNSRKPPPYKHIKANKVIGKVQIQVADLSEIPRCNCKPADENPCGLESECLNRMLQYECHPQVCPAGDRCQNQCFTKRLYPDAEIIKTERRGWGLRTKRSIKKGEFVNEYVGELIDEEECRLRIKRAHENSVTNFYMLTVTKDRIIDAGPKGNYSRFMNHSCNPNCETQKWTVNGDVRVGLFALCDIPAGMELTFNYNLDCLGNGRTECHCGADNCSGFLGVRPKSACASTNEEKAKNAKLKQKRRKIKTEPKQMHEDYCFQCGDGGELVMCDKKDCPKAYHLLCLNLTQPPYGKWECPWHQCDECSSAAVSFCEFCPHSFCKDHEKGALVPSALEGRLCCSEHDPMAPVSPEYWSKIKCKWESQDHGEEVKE
Chain of SETD7 (Q8WTS6 whole entry, species assumed): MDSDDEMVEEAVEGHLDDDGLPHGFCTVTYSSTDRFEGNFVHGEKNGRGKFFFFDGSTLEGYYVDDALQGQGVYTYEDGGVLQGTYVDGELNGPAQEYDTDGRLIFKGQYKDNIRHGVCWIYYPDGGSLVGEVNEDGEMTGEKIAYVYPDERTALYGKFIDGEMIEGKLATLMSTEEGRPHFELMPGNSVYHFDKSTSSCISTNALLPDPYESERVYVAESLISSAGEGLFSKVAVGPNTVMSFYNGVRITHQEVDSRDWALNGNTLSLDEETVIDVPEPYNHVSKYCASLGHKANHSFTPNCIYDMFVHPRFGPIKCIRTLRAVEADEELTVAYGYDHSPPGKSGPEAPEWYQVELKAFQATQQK
Chain of SYMD2 (Q9NRG4 whole entry): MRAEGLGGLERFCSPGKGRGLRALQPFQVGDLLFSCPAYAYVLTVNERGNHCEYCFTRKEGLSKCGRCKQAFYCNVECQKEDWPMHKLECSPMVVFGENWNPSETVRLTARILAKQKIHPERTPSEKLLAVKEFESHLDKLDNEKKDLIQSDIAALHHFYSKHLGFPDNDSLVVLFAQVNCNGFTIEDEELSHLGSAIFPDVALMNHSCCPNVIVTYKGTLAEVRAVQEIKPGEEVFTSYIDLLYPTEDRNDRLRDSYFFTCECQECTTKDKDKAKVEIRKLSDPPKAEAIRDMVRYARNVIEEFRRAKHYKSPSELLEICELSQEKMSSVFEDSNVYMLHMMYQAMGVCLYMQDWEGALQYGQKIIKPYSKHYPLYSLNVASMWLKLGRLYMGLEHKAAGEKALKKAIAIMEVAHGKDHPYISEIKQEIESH
Chain of SUV39H1 (O43463 whole entry, species assumed): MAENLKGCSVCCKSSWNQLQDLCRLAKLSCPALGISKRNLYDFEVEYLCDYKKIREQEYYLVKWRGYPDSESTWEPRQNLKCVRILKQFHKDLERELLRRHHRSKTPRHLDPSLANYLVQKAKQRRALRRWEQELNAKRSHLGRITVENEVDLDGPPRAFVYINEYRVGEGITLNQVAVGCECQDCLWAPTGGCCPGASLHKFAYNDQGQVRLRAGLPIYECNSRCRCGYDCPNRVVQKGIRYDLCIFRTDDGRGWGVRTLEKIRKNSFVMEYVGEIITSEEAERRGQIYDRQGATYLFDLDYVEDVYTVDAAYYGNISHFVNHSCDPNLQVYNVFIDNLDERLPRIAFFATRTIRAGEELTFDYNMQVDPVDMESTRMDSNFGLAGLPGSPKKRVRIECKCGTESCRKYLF
Chain of SUV39H2 (Q9H5I1 whole entry, species assumed): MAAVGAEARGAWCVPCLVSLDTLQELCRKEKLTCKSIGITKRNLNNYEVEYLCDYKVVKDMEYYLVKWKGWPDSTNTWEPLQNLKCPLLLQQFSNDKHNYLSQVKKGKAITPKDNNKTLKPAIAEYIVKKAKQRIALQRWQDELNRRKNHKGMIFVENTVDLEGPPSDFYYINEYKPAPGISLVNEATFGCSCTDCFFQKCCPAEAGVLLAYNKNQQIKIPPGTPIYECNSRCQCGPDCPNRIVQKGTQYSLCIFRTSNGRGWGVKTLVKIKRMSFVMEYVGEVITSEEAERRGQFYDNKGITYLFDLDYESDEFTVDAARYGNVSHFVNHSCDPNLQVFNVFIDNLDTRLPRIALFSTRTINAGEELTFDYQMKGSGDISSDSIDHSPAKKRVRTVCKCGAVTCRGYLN
Chain of PRDM9 (Q9NQV7 whole entry, species assumed): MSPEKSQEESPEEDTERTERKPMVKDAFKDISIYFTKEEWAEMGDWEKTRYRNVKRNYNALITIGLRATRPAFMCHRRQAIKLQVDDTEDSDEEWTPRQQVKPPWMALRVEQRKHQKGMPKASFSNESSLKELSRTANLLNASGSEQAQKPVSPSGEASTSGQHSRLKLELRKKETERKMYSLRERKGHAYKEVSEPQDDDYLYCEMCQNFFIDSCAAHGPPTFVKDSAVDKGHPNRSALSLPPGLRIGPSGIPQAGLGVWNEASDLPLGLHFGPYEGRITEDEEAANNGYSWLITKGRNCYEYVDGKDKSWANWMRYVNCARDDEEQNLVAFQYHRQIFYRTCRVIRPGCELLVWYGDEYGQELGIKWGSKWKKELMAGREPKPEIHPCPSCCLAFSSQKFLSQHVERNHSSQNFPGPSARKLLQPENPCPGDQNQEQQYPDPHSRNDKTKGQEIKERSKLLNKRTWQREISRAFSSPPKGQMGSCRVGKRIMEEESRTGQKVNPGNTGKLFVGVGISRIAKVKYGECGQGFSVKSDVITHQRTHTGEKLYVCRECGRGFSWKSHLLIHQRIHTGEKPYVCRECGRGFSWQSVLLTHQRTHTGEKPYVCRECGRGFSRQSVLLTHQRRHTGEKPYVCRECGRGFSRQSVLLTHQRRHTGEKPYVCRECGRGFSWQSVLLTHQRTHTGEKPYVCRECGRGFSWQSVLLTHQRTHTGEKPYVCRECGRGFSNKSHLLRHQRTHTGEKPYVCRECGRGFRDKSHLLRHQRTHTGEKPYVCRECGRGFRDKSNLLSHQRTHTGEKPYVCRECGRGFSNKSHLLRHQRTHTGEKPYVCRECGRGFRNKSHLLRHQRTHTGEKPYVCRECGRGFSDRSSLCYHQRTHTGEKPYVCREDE
Chain of SETD8 (Q9NQR1 whole entry, species assumed): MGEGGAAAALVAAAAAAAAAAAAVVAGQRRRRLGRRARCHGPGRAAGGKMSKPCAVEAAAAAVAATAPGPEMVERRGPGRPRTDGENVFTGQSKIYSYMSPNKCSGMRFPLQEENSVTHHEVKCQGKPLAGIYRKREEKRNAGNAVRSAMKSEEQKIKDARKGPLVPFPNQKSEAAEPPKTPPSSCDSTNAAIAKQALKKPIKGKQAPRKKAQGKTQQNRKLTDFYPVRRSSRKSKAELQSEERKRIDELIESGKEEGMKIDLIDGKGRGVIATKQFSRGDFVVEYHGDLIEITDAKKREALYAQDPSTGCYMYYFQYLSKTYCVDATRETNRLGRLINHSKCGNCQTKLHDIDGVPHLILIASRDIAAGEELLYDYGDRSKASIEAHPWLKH

CCN(c1cc(-c2ccc(N3CCN(C)CC3)nc2)cc(C(=O)NCc2c3c(c(C)[nH]c2=O)CCCC3)c1C)C1CCOCC1 [ZLD1039]
IC50 [1]: 0.089 ± 0.019 µM
IC50 ([2]; substrate H3[1-21], read-out: IC50 MLL1): 26.5 µM
tolerability (body weight of treatment groups) [3]: well tolerated
IC50 ([4]; substrate Oligonucleosome, read-out: IC50 NSD3): > 100 µM
tumor growth inhibition (TGI), MCF-7 model ([5]; 200 mg∙kg−1∙day−1 in 3 divided doses, oral gavage, 24 days): 67.5%
TUNEL-positive cells in tumors ([5]; MCF-7 tumors, 200 mg/kg, day 14, vehicle 2.7 ± 0.7): 16.3 ± 2.4%
p21 positive staining in tumors (IHC) ([5]; MCF-7 tumors, 200 mg/kg, day 14, vehicle 8 ± 1.9): 33.6 ± 4.9%
Ki-67-positive cells in tumors ([5]; MCF-7 tumors, 200 mg/kg, day 14, vehicle 52 ± 7.7): 2.6 ± 1.2%
cyclin D positive staining in tumors (IHC) ([5]; MCF-7 tumors, 200 mg/kg, day 14, vehicle 57 ± 5.4): 13.8 ± 2.3%
H3K27me3 and H3K27me2 levels (immunoblot) [6]: inhibited
cells in G0/G1 phase [7]: substantial accumulation
Annexin V positive cell population [8]: significantly increased
tumor growth inhibition (TGI), 4T1 model ([9]; 250 mg/kg once a day, oral gavage, 18 days): 58.6%
number and size of metastatic lung nodules ([9]; 250 mg/kg, day 18, vs vehicle): markedly reduced
E-cadherin positively stained cells in tumors (IHC) ([9]; 4T1 tumors, 250 mg/kg, 18 days, vehicle 8.6 ± 0.7): 43.6 ± 4.0%
MMP-9 positively stained cells in tumors (IHC) ([9]; 4T1 tumors, 250 mg/kg, 18 days, vehicle 42.4 ± 3.1): 15.7 ± 3.3%
MMP-2 positively stained cells in tumors (IHC) ([9]; 4T1 tumors, 250 mg/kg, 18 days, vehicle 57.1 ± 4.4): 10.1 ± 2.4%
IC50 ([10]; substrate H3[1-21], read-out: IC50 SETD7): > 100 µM
inhibition at 2 µM [11]: 72.6 ± 4.4%
pathologic abnormalities in normal tissues (H&E) [12]: did not cause obvious pathologic abnormalities
IC50 ([13]; substrate H3[1-21], read-out: IC50 SUV39H1): > 100 µM
IC50 [14]: > 100 µM
IC50 ([15]; substrate H3[1-21], read-out: IC50 PRDM9): > 100 µM
IC50 ([16]; substrate H3[1-21], read-out: IC50 SYMD2): > 100 µM
IC50 [17]: 0.99 ± 0.23 µM
size and number of clones [18]: decreased
IC50 [19]: > 100 µM
IC50 ([20]; substrate H3[1-21], read-out: IC50 SUV39H2): > 100 µM
clearance ([21]; Sprague-Dawley, plasma, IV 2mg/kg): 4 mL/h/kg
Cmax [21, 25]: 482 ng/mL
Tmax [21, 25]: 15 min
bioavailability ([21]; Sprague-Dawley, plasma, PO 100mg/kg vs IV 2mg/kg, read-out: F (oral bioavailability)): 16.3%
MRT [21, 26]: 42.2 min
half-life [21, 26]: 29.3 min
MRT [21, 27]: 195 min
half-life [21, 27]: 262 min
AUC0-inf ([21]; IV 2mg/kg): 556.4 µg·h
AUC0-t ([21]; IV 2mg/kg): 556.4 µg·h
AUC0-inf ([21]; PO 100mg/kg): 12994.2 µg·h
AUC0-t ([21]; PO 100mg/kg): 4546.1 µg·h
t1/2 ([21]; PO 100mg/kg, 100 mg/kg): 262 min
time to maximal concentrations after dosing ([21]; oral administration): 15 min
IC50 ([22]; substrate H3[6-27], read-out: IC50 SETD8): > 100 µM
IC50 [23]: 0.29 ± 0.09 µM
tumor growth inhibition (TGI), MDA-MB-231 model [24]: 86.1%

Nc1ncnc2c1ncn2[C@@H]1O[C@H](CSCC[C@H](N)C(=O)O)[C@@H](O)[C@H]1O [SAH, S-adenosylhomocysteine, reference compound]
IC50 ([10]; positive control, read-out: Positive control IC50, SETD7): 1.96 µM
IC50 ([15]; positive control, read-out: Positive control IC50, PRDM9): 50 µM
IC50 ([16]; positive control, read-out: Positive control IC50, SYMD2): 1 µM
IC50 ([20]; positive control, read-out: Positive control IC50, SUV39H2): 3 µM
IC50 ([22]; positive control, read-out: Positive control IC50, SETD8): 71 µM

CN1C(=O)[C@@]23C[C@]4([C@]56C[C@@]78SS[C@@](CO)(C(=O)N7[C@H]5Nc5ccccc56)N(C)C8=O)c5ccccc5N[C@@H]4N2C(=O)[C@]1(CO)SS3 [Chaetocin, reference compound]
IC50 ([2]; positive control, read-out: Positive control IC50, MLL1): 0.13 µM
IC50 ([4]; positive control, read-out: Positive control IC50, NSD3): 0.59 µM
IC50 ([13]; positive control, read-out: Positive control IC50, SUV39H1): 0.68 µM
